Assay results published in US10800791B2, “Triazole ACC inhibitors and uses thereof” (Gilead Apollo, LLC, priority 2015, dated 2020).
In brackets after ≈: the same amount, converted by molar mass. Read-outs that look alike come from different tables or passages of the source.

What was measured:
[1] = biological target: human (hACC2) (Homo sapiens, UniProt O00763); assay: In vitro ACC inhibition assay (ADP-Glo), hACC2; type: biochemical; details: 5 nM ACC2, 20 μM ATP, 20 μM acetyl-CoA
Procedure: The detailed procedure is as follows. […] 10 μL ADP glo reagent was added. […] 20 μL kinase detection reagent was added.

[2] = system: Phytophthora capsici (Pc); assay: Growth inhibition assay of fungal pathogens, Pc; type: cell-based; details: 48 h
Summary of the method: (§1)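 Read-out: OD600 plus visual rating at 24 and 48 h, blank (media + 2% DMSO) subtracted. Percent inhibition was derived at 48 h versus the 2% DMSO control. Spores were grown in 17% V8 broth with compound at 50/10/2 or 2/0.4/0.08 ppm final.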

[3] = system: C. albicans; assay: Antifungal Activity Assay (broth microtiter MIC), C. albicans; type: cell-based, Candida albicans; details: Candida albicans, ATCC90028, 48 h
Summary of the method: (§2)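 CLSI M27-A3 microdilution; RPMI 1640+MOPS; 2.5×10^3 CFU/mL final inoculum; cultures from Sabouraud dextrose agar, 35° C overnight; compound working solution 128 μg/mL from 1 mg/mL DMSO stock; visual MIC at 48 h vs growth control.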

[4] = biological target: fungal (fACC2) (UniProt Q00955); details: read-out: fACC2 (in vitro ACC2 Inhibition Assay, IC50), ADP-Glo, 5 nM ACC2, 20 μM ATP, 20 μM acetyl-CoA
Chain of fungal (fACC2) (Q00955 whole entry): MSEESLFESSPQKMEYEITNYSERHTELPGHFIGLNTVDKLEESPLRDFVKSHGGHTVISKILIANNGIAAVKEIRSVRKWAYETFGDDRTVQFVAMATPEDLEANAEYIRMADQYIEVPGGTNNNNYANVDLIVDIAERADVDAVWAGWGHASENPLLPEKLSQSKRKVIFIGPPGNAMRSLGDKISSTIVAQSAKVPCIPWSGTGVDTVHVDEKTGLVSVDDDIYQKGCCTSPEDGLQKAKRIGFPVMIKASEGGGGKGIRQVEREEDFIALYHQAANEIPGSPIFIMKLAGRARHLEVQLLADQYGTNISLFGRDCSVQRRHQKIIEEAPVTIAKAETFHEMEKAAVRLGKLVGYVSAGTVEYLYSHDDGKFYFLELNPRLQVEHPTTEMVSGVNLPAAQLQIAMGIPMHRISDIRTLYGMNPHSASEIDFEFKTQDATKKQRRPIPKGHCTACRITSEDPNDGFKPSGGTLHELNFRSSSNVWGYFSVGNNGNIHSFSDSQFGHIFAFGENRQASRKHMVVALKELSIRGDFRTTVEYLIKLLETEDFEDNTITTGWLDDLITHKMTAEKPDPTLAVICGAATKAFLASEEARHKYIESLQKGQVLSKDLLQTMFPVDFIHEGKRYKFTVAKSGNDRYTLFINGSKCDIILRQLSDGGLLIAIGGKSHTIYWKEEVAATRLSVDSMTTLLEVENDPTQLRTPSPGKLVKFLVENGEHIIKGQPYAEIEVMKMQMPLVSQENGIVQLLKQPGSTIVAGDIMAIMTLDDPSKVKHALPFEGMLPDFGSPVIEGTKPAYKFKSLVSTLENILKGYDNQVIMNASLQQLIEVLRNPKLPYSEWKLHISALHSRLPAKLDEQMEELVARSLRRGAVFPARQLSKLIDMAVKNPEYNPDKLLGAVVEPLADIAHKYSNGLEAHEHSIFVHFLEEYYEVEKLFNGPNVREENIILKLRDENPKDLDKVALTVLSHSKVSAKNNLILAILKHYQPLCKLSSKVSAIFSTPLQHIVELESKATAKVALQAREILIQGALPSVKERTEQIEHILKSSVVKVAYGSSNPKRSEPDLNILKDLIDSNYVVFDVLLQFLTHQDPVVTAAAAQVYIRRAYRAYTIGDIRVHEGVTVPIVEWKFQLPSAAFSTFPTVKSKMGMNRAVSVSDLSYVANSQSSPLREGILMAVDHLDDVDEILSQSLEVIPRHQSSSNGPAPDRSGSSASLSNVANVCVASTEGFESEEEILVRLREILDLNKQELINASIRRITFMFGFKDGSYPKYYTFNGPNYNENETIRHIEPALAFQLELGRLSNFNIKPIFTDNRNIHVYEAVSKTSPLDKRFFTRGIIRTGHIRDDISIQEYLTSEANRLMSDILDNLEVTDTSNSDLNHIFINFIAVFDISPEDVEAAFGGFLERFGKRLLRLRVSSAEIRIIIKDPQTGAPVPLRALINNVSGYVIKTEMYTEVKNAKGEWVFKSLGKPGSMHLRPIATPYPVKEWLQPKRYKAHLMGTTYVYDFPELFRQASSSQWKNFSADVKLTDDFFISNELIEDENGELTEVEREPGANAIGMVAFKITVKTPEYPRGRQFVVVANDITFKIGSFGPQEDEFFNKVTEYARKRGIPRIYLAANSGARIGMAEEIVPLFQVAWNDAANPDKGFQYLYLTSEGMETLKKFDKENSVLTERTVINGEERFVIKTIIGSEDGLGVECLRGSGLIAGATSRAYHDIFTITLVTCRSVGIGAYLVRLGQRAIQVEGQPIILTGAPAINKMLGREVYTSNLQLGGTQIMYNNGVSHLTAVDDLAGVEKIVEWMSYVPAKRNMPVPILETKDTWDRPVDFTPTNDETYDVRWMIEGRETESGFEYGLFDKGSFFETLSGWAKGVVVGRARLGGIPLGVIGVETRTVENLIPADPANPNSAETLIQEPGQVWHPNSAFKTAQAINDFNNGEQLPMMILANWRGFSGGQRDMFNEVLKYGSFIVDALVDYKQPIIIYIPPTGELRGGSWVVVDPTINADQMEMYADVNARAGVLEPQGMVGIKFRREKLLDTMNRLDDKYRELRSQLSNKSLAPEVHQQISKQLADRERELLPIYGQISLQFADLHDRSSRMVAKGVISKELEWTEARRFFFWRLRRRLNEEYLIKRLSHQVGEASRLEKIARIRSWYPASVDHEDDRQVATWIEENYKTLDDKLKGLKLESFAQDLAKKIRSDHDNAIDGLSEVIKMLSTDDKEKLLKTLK

[5] = system: C. parapsilosis; assay: Antifungal Activity Assay (broth microtiter MIC), C. parapsilosis; type: cell-based, Candida parapsilosis; details: Lodderomyces parapsilosis, ATCC22019, 48 h
Summary of the method: as §2

[6] = system: Rhizoctonia solani (Rs); assay: Growth inhibition assay of fungal pathogens, Rs; type: cell-based; details: 48 h
[7] = system: Botrtyis cinerea (Bc); assay: Growth inhibition assay of fungal pathogens, Bc; type: cell-based; details: 48 h
Summary of the method: as §1

[8] = system: Diplodia maydis (Dm); assay: Growth inhibition assay of fungal pathogens, Dm; type: cell-based; details: Stenocarpella maydis, 48 h
Summary of the method: as §1

[9] = system: Fusarium virguliforme (Fv); assay: Growth inhibition assay of fungal pathogens, Fv; type: cell-based; details: 48 h
Summary of the method: as §1

[10] = system: C. krusei; assay: Antifungal Activity Assay (broth microtiter MIC), C. krusei; type: cell-based, Candida krusei; details: Pichia kudriavzevii, ATCC6258, 48 h
Summary of the method: as §2

[11] = read-out: Concentration at 90% Inhibition Pc, Phytophthora capsici, growth inhibition at 48 hours vs 2% DMSO control
[12] = read-out: Concentration at 90% Inhibition Pc, Phytophthora capsici, growth inhibition vs 2% DMSO control at 48 hours
[13] = read-out: MIC, C. albicans ATCC 90028, Table 3a, 3 replicates, MIC recorded at 48 h
[14] = read-out: MIC, C. albicans ATCC 90028, Table 3b (additional results), 3 replicates, MIC recorded at 48 h
[15] = read-out: MIC, C. parapsilosis ATCC 22019, Table 3a, 3 replicates, MIC recorded at 48 h
[16] = read-out: MIC, C. parapsilosis ATCC 22019, Table 3b (additional results), 3 replicates, MIC recorded at 48 h
[17] = read-out: Concentration at 90% Inhibition Rs, Rhizoctonia solani, mycelial plugs, growth inhibition at 48 hours vs 2% DMSO control
[18] = read-out: Concentration at 90% Inhibition Rs, Rhizoctonia solani, mycelial plugs, growth inhibition vs 2% DMSO control at 48 hours
[19] = read-out: Concentration at 90% Inhibition Bc, Botrtyis cinerea, growth inhibition at 48 hours vs 2% DMSO control
[20] = read-out: Concentration at 90% Inhibition Bc, Botrtyis cinerea, growth inhibition vs 2% DMSO control at 48 hours
[21] = read-out: Concentration at 90% Inhibition Dm, Diplodia maydis, growth inhibition at 48 hours vs 2% DMSO control
[22] = read-out: Concentration at 90% Inhibition Dm, Diplodia maydis, growth inhibition vs 2% DMSO control at 48 hours
[23] = read-out: Concentration at 90% Inhibition Fv, Fusarium virguliforme, growth inhibition at 48 hours vs 2% DMSO control
[24] = read-out: Concentration at 90% Inhibition Fv, Fusarium virguliforme, growth inhibition vs 2% DMSO control at 48 hours
[25] = read-out: MIC, C. krusei ATCC 6258, Table 3a, 3 replicates, MIC recorded at 48 h
[26] = read-out: MIC, C. krusei ATCC 6258, Table 3b (additional results), 3 replicates, MIC recorded at 48 h
[27] = growth inhibition at 48 hours vs 2% DMSO control, read-out: Concentration at 90% Inhibition Pc
[28] = growth inhibition vs 2% DMSO control at 48 hours, read-out: Concentration at 90% Inhibition Pc
[29] = Table 3a, ATCC 90028, 3 replicates, MIC recorded at 48 h, read-out: MIC, C. albicans ATCC 90028
[30] = Table 3b (additional results), ATCC 90028, 3 replicates, MIC recorded at 48 h, read-out: MIC, C. albicans ATCC 90028
[31] = Table 3a, ATCC 22019, 3 replicates, MIC recorded at 48 h, read-out: MIC, C. parapsilosis ATCC 22019
[32] = Table 3b (additional results), ATCC 22019, 3 replicates, MIC recorded at 48 h, read-out: MIC, C. parapsilosis ATCC 22019
[33] = mycelial plugs, growth inhibition at 48 hours vs 2% DMSO control, read-out: Concentration at 90% Inhibition Rs
[34] = mycelial plugs, growth inhibition vs 2% DMSO control at 48 hours, read-out: Concentration at 90% Inhibition Rs
[35] = Botrtyis cinerea, growth inhibition at 48 hours vs 2% DMSO control, read-out: Concentration at 90% Inhibition Bc
[36] = Botrtyis cinerea, growth inhibition vs 2% DMSO control at 48 hours, read-out: Concentration at 90% Inhibition Bc
[37] = Diplodia maydis, growth inhibition at 48 hours vs 2% DMSO control, read-out: Concentration at 90% Inhibition Dm
[38] = Diplodia maydis, growth inhibition vs 2% DMSO control at 48 hours, read-out: Concentration at 90% Inhibition Dm
[39] = growth inhibition at 48 hours vs 2% DMSO control, read-out: Concentration at 90% Inhibition Fv
[40] = growth inhibition vs 2% DMSO control at 48 hours, read-out: Concentration at 90% Inhibition Fv
[41] = Table 3a, ATCC 6258, 3 replicates, MIC recorded at 48 h, read-out: MIC, C. krusei ATCC 6258
[42] = Table 3b (additional results), ATCC 6258, 3 replicates, MIC recorded at 48 h, read-out: MIC, C. krusei ATCC 6258

Chain of human (hACC2) (O00763 whole entry): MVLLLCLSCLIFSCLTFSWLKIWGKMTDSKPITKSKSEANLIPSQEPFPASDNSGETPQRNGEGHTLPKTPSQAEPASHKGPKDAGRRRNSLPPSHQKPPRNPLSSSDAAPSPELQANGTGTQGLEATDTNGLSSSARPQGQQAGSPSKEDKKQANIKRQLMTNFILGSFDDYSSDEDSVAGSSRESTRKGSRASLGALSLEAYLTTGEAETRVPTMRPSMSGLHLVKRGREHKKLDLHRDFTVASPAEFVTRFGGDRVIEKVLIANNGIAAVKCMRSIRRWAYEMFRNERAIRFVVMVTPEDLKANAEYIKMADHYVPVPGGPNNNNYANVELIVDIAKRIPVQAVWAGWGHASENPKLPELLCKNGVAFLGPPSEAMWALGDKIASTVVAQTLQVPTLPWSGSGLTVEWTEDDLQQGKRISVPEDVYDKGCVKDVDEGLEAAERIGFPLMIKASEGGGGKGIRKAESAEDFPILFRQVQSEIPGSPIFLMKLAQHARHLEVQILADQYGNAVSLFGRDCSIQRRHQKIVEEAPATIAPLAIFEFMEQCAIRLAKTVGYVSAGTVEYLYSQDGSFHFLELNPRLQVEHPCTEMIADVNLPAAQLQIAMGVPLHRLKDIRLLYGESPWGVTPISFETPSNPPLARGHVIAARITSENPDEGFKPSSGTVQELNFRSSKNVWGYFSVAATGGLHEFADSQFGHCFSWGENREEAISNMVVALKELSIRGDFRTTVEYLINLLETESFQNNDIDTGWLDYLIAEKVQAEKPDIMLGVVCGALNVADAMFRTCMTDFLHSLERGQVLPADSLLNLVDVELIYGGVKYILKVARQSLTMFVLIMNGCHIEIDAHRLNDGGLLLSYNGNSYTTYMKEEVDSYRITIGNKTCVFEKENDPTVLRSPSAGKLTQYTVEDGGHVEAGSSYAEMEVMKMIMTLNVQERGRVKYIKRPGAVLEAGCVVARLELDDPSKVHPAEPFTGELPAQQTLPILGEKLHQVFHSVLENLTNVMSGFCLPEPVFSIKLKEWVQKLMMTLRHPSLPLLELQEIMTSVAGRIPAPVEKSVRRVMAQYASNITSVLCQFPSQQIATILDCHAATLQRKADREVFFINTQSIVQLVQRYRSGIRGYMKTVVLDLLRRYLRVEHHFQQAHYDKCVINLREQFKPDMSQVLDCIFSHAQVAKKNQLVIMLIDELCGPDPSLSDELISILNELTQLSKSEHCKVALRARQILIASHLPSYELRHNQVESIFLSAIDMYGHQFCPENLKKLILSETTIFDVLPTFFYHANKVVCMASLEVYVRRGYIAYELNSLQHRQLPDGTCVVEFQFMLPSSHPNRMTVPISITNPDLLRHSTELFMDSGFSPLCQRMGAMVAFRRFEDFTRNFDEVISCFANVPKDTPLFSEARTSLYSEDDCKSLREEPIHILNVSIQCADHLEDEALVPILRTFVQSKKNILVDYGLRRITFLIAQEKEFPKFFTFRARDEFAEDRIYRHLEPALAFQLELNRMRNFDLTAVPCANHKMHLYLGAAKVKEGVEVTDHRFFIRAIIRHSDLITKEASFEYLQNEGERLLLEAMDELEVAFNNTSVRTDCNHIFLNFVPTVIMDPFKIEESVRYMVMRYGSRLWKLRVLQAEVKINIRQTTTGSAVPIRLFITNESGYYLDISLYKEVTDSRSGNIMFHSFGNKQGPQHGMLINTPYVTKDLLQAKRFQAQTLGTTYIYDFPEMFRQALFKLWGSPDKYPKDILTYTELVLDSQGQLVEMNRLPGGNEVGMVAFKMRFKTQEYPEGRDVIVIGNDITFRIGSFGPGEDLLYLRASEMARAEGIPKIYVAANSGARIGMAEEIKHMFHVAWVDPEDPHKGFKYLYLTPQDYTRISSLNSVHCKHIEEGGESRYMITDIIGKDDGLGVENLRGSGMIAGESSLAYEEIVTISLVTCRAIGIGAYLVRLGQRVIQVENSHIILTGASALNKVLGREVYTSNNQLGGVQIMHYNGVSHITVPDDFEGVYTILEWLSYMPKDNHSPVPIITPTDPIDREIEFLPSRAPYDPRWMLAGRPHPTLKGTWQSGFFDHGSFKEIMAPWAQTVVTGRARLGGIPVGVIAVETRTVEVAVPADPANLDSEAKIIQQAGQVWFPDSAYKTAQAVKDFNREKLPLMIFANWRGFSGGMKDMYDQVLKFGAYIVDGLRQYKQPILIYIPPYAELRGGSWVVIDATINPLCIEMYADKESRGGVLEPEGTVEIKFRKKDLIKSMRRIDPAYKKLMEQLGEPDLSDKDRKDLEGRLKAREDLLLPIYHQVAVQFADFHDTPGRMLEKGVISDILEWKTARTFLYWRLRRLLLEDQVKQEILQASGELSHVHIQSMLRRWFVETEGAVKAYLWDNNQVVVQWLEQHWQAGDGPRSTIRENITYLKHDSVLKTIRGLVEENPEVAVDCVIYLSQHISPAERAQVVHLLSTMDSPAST

Row | SMILES | IC50 ([1]; Table 2a) [nM] | IC50 ([1]; Table 2b, additional results) [nM] | IC90 [2, 11] [µg/mL] | IC90 [2, 12] [µg/mL] | MIC [3, 13] [µg/mL] | MIC [3, 14] [µg/mL] | IC50 ([4]; Table 2a) [nM] | IC50 ([4]; Table 2b, additional results) [nM] | MIC [5, 15] [µg/mL] | MIC [5, 16] [µg/mL] | IC90 [6, 17] [µg/mL] | IC90 [6, 18] [µg/mL] | IC90 [7, 19] [µg/mL] | IC90 [7, 20] [µg/mL] | IC90 [8, 21] [µg/mL] | IC90 [8, 22] [µg/mL] | IC90 [9, 23] [µg/mL] | IC90 [9, 24] [µg/mL] | MIC [10, 25] [µg/mL] | MIC [10, 26] [µg/mL] | further results
1 | COc1ccc(F)cc1[C@H](Cn1c(=O)n([C@@H](C)C(=O)NC(C)C)c(=O)c2c(C)c(-n3nccn3)sc21)OCCO [Compound I-88, (S)-2-(1-((R)-2-(5-fluoro-2-methoxyphenyl)-2-(2-hydroxyethoxy)ethyl)-5-methyl-2,4-dioxo-6-(2H-1,2,3-triazol-2-yl)-1,4-dihydro-thieno[2,3-d]pyrimidin-3(2H)-yl)-N-isopropylpropanamide] | 5 to 10 | 5 to 10 | 2 (≈ 3.48 µM) | 2 (≈ 3.48 µM) | 1.1 to 2 (≈ 1.91 to 3.48 µM) | 2.01 to 4 (≈ 3.5 to 6.96 µM) | 1 to 5 | 0.3 to 1 | 1.1 to 2 (≈ 1.91 to 3.48 µM) | 1.01 to 2 (≈ 1.76 to 3.48 µM) | 0.08 (≈ 0.139 µM) | 0.08 (≈ 0.139 µM) | 2 (≈ 3.48 µM) | 2 (≈ 3.48 µM) | 0.4 (≈ 0.696 µM) | 0.4 (≈ 0.696 µM) | 2 (≈ 3.48 µM) | 2 (≈ 3.48 µM) | 0.25 to 1 (≈ 0.435 to 1.74 µM) | 1.01 to 2 (≈ 1.76 to 3.48 µM) | 
2 | COc1ccc(F)cc1[C@H](Cn1c(=O)n([C@H](C)C(=O)NC(C)C)c(=O)c2c(C)c(-n3nccn3)sc21)OCCO [Compound I-89, (R)-2-(1-((R)-2-(5-fluoro-2-methoxyphenyl)-2-(2-hydroxy-ethoxy)ethyl)-5-methyl-2,4-dioxo-6-(2H-1,2,3-triazol-2-yl)-1,4-dihydrothieno[2,3-d]pyrimidin-3(2H)-yl)-N-isopropylpropanamide] | 10 to 40 | 5 to 10 | > 50 | > 50 | 2.1 to 4 (≈ 3.65 to 6.96 µM) | 2.01 to 4 (≈ 3.5 to 6.96 µM) | 1 to 5 | 1 to 5 | 2.1 to 4 (≈ 3.65 to 6.96 µM) | 1.01 to 2 (≈ 1.76 to 3.48 µM) | 2 (≈ 3.48 µM) | 2 (≈ 3.48 µM) | 0.4 (≈ 0.696 µM) | 0.4 (≈ 0.696 µM) | 2 (≈ 3.48 µM) | 10 (≈ 17.4 µM) | 2 (≈ 3.48 µM) | 2 (≈ 3.48 µM) | 2.1 to 4 (≈ 3.65 to 6.96 µM) | 1.01 to 2 (≈ 1.76 to 3.48 µM) | 
3 | COc1ccc(F)cc1[C@H](Cn1c(=O)n(C(C)(C)C(=O)NC(C)C)c(=O)c2c(C)c(-n3nccn3)sc21)OCCC(N)=O [Compound I-90, (R)-2-(1-(2-(3-amino-3-oxopropoxy)-2-(5-fluoro-2-metho-xyphenyl)ethyl)-5-methyl-2,4-dioxo-6-(2H-1,2,3-triazol-2-yl)-1,4-dihydro-thieno[2,3-d]pyrimidin-3(2H)-yl)-N-isopropyl-2-methylpropanamide] | 10 to 40 | 10 to 40 |  |  |  |  | 1 to 5 | 1 to 5 |  |  |  |  |  |  |  |  |  |  |  |  | IC90 [2, 27]: > 50 µg/mL; IC90 [2, 28]: > 50 µg/mL; MIC [3, 29]: 2.1 to 4 µg/mL (≈ 3.41 to 6.5 µM); MIC [3, 30]: 0.25 to 1 µg/mL (≈ 0.406 to 1.62 µM); MIC [5, 31]: 2.1 to 4 µg/mL (≈ 3.41 to 6.5 µM); MIC [5, 32]: 0.25 to 1 µg/mL (≈ 0.406 to 1.62 µM); IC90 [6, 33]: 2 µg/mL (≈ 3.25 µM); IC90 [6, 34]: 2 µg/mL (≈ 3.25 µM); IC90 [7, 35]: 2 µg/mL (≈ 3.25 µM); IC90 [7, 36]: 2 µg/mL (≈ 3.25 µM); IC90 [8, 37]: > 50 µg/mL; IC90 [8, 38]: > 50 µg/mL; IC90 [9, 39]: 0.4 µg/mL (≈ 0.65 µM); IC90 [9, 40]: 0.4 µg/mL (≈ 0.65 µM); MIC [10, 41]: 1.1 to 2 µg/mL (≈ 1.79 to 3.25 µM); MIC [10, 42]: 0.25 to 1 µg/mL (≈ 0.406 to 1.62 µM)
4 | COc1ccc(F)cc1[C@H](Cn1c(=O)n(C(C)(C)C(=O)NC(C)C)c(=O)c2c(C)c(-n3nccn3)sc21)OCCC#N [Compound I-91, (R)-2-(1-(2-(2-cyanoethoxy)-2-(5-fluoro-2-methoxy-phenyl)ethyl)-5-methyl-2,4-dioxo-6-(2H-1,2,3-triazol-2-yl)-1,4-dihydro-thieno[2,3-d]pyrimidin-3(2H)-yl)-N-isopropyl-2-methylpropanamide] | 10 to 40 | 10 to 40 |  |  |  |  | 1 to 5 | 1 to 5 |  |  |  |  |  |  |  |  |  |  |  |  | IC90 [2, 27]: 2 µg/mL (≈ 3.35 µM); IC90 [2, 28]: 10 µg/mL (≈ 16.7 µM); MIC [3, 29]: 0.25 to 1 µg/mL (≈ 0.418 to 1.67 µM); MIC [3, 30]: 1.01 to 2 µg/mL (≈ 1.69 to 3.35 µM); MIC [5, 31]: 0.06 to 0.24 µg/mL (≈ 0.1 to 0.402 µM); MIC [5, 32]: 0.25 to 1 µg/mL (≈ 0.418 to 1.67 µM); IC90 [6, 33]: 0.08 µg/mL (≈ 0.134 µM); IC90 [6, 34]: 0.08 µg/mL (≈ 0.134 µM); IC90 [7, 35]: 0.4 µg/mL (≈ 0.669 µM); IC90 [7, 36]: 0.4 µg/mL (≈ 0.669 µM); IC90 [8, 37]: 0.08 µg/mL (≈ 0.134 µM); IC90 [8, 38]: 0.08 µg/mL (≈ 0.134 µM); IC90 [9, 39]: 0.08 µg/mL (≈ 0.134 µM); IC90 [9, 40]: 0.08 µg/mL (≈ 0.134 µM); MIC [10, 41]: 0.06 to 0.24 µg/mL (≈ 0.1 to 0.402 µM); MIC [10, 42]: 0.25 to 1 µg/mL (≈ 0.418 to 1.67 µM)
